Reference: patent publication US20040224989A1, “S-lansoprazole compositions and methods” (priority 1999, published 2004)
Read-outs that look alike come from different tables or passages of the source.

Legend:
[1] = in humans; cited from earlier work
gastric acid secretion = conditions: in humans; cited from earlier work
serum gastrin = conditions: humans, on administration; cited from earlier work
[2] = tested on: hepatic drug metabolizing enzyme systems; conditions: relative to omeprazole; cited from earlier work
CYP2D6 [3] = tested on: CYP2D6
canine parietal cells = conditions: isolated canine parietal cells; (+) versus (−) enantiomer; Nagaya et al.; cited from earlier work
CYP3A4 = CYP3A4 (Homo sapiens, UniProt P08684); test: metabolism by CYP3A4
[4] = pharmacokinetic and duration profile of the S(−) isomer; format: in vivo; conditions: compared with racemic lansoprazole
From the text: Syndrome, psoriasis and other disorders, including those that would benefit from an inhibitory action on H^+, K^+-ATPase in that it provides this effective treatment while substantially reducing the adverse effects of racemic lansoprazole including, but not limited to, hepatocellular neoplasia, gastric carcinoids, headache, diarrhea and skin alterations.

stability at low pH = format: physicochemical
From the text: The terms “pharmaceutically acceptable salts” or “a pharmaceutically acceptable salt thereof” refer to salts prepared from pharmaceutically acceptable non-toxic bases. […] Suitable pharmaceutically acceptable base addition salts for the compound of the present invention include metallic salts of aluminum, calcium, lithium, magnesium, potassium, sodium, titanium and zinc or organic salts made from lysine, N,N′-dibenzylethylenediamine, chloroprocaine, choline, diethanolamine, ethylenediamine, meglumine (N-methylglucamine) and procaine. If any salt is to be used, sodium salts are preferred.

CYP2D6 [5] = test: metabolism by CYP2D6; conditions: CYP2D6 is the polymorphically expressed enzyme

CYP3A4, sequence (P08684 whole entry): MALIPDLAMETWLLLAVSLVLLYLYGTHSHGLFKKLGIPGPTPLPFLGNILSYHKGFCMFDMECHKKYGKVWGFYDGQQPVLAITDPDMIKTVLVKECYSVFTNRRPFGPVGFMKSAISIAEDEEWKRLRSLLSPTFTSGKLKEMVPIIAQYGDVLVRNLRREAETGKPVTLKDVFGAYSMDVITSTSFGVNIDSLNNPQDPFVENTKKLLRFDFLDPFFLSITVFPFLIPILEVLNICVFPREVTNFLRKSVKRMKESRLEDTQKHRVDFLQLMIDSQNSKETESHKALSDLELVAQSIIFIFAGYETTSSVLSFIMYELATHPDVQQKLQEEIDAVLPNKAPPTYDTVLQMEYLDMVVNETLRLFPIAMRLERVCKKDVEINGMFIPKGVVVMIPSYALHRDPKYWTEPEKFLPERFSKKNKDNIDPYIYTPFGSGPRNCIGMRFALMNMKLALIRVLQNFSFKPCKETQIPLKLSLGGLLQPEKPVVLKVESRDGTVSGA

Cc1c(OCC(F)(F)F)ccnc1C[S+]([O-])c1nc2ccccc2[nH]1 (racemic) [racemic lansoprazole, 2-[3-methyl-4-(2,2,2-trifluoroethoxy)pyrid-2-yl]methylsulfinyl-benzimidazole]
serum half-life [1]: about 1.5 hours | duration of the acid inhibitory effect (gastric acid secretion): about 24 hours | fasting serum gastrin levels (serum gastrin): significantly elevated | effects on hepatic drug metabolizing enzyme systems [2]: comparable to omeprazole

Cc1c(OCC(F)(F)F)ccnc1C[S@@+]([O-])c1nc2ccccc2[nH]1 [R(+) lansoprazole, reference compound]
metabolism by CYP2D6 (CYP2D6 [3]): metabolized only by CYP2D6 | effect on acid formation stimulated by db-cAMP (canine parietal cells): almost identical | metabolism by CYP3A4 (CYP3A4): metabolized only by CYP2D6

Cc1c(OCC(F)(F)F)ccnc1C[S+]([O-])c1nc2ccccc2[nH]1 (single isomer, unassigned; (-)) [S(−) lansoprazole, (−) isomer of 2-[3-methyl-4-(2,2,2-trifluoroethoxy)pyrid-2-yl]methylsulfinyl-benzimidazole]
AUC (area under the curve) [4]: higher AUC | duration [4]: longer duration | first pass metabolism [4]: lower first pass metabolism | onset [4]: more rapid onset | stability at low pH (stability at low pH): unstable at low pH | effect on acid formation stimulated by db-cAMP (canine parietal cells): almost identical | metabolism by CYP2D6 (CYP2D6 [5]): metabolized by both CYP2D6 and CYP3A4 | metabolism by CYP3A4 (CYP3A4): metabolized by both CYP2D6 and CYP3A4
